{"source": "patent US9855209B1", "about": "“Anti-bacterial mouthwash” (KING ABDULAZIZ UNIVERSITY, priority 2017, dated 2018)", "system": "Salmonella enterica subsp. Enterica serovar Typhimurium (ATCC 29629, TA 1535)", "test": "Ames test", "assay_type": "cell-based", "conditions": "positive control", "text": "The Ames test was followed according to a previously reported procedure (Ames et al, 1973; Mortelmans and Zeiger, 2000). Briefly, the test organism Salmonella enterica subsp. Enterica serovar Typhimurium (ATCC® 29629-Strain Designations: TA 1535), an auxotrophic mutant, was provided by ATCC, Manassas, USA. This auxotrophic isolate requires histidine for its growth, due to a mutation in its DNA. Substances to be tested for their mutagenesis, could be added in the histidine-free medium of the test organism, to monitor their ability to reverse back the mutated Salmonella typhimurium to a prototrophic state, enabling it to grow. The anti-bacterial mouthwash was incorporated in the histidine-free medium used in the Ames test, at four different concentrations namely, 1/100×, 1×, 1.5×, and 2× (where X is the dilution used in mouth rinsing experiments), while another batch of the medium was deprived of the Mouthwash substance. Ethidium bromide, an expected positive inducer of mutations in the test organism, was incorporated in another batch of the same histidine-free medium at two concentrations namely, 20 and 200 nmole. The S. Typhimurium was cultured in triplicate onto the 4 differently supplemented media, and on the 5th control medium that was deprived of supplementation, to observe the growth of this test organism. The bacterium was spread over these media with small amounts of histidine that helps in the initiation of the growth, and once this amino acid is depleted, only the mutated cells by the supplemented substance will be able to synthesize their histidine, and to continue their growth. Thus, mutagenicity is determined in this research from the proportion of the average colony forming units formed on triplicate of the supplemented medium with the anti-bacterial mouthwash versus that formed on triplicate of the non-supplemented medium, with the growth on Ethidium bromide acting as a positive control of the test.\nThe results of the Ames test in relation to reversion of the S. Typhimurium test organism from its auxotrophic to prototrophic nature is shown in Table 4.", "data": [{"smiles": "CC[n+]1c(-c2ccccc2)c2cc(N)ccc2c2ccc(N)cc21", "note": "[Ethidium bromide]", "values": [{"measurement": "Mean % increase in S. Typhimurium CFU count of triplicate relative to mean triplicate count on minimal Histidine-supplemented medium", "setting": "20 nmol/plate", "result": 0, "unit": "%"}, {"measurement": "Mean % increase in S. Typhimurium CFU count of triplicate relative to mean triplicate count on minimal Histidine-supplemented medium", "setting": "20 nmol/plate, listed as Eth", "result": 0.0, "unit": "%"}, {"measurement": "Mean % increase in S. Typhimurium CFU count of triplicate relative to mean triplicate count on minimal Histidine-supplemented medium", "setting": "200 nmol/plate, apparent reversion of mutation (P<0.05)", "result": 12.5, "unit": "%"}]}]}
